Laboratory results reported in patent publication US20130130992A1, “DIPEPTIDE DERIVATIVE FOR THE TREATMENT OF CANCER” (ONCOTEST GMBH, priority 2010, published 2013).

Assays:
Assay type in all cases: cell-based
BXF 1218L = assay: Monolayer propidium iodide assay, BXF 1218L; conditions: Homo sapiens, 96 h, Bladder, 4 days of treatment
Excerpt: (§1) Oncotest GmbH, Germany's proprietary tumor cell line panel comprises 40 cell lines. These cell lines were derived from 15 different tumor histotypes, each represented by 1 to 6 different cell lines. Cell lines were established from cancer of the bladder (3), colon (4), head and neck (1), lung (6), breast (3), pancreas (3), prostate (4), ovary (2), kidney (3), liver (1), stomach (1) and the uteri body (1), as well as from melanoma (3), sarcoma (2) and pleuramesothelioma (3). Out of these 40 cell lines, 24 cell lines were established at Oncotest, from patient-derived tumor xenografts. […]
(§2) Stock solutions of the compound of formula (1) (3.3 mM in DMSO) were prepared and stored in small aliquots (200 μl) at −20° C. […] Each concentration was evaluated in triplicate. […]
(§3) Cells were plated in 96-well flat-bottom microtiter plates at a cell density of 4,000 to 20,000 cells/well. […] After an incubation period of 1-2 hours at room temperature, fluorescence (FU) was measured using the Cytofluor 4000 microplate reader (excitation λ=530 nm, emission λ=620 nm) to quantify the amount of attached viable cells. […] Based on the T/C values, relative IC50 values were determined by non-linear regression (log [conc. of inhibitor] versus response (% T/C)) using the GraphPad Prism® analysis software (Prism 5 for Windows, version 5.01, GraphPad Software Inc., CA). […]

BXF 1352L = assay: Monolayer propidium iodide assay, BXF 1352L; conditions: Homo sapiens, 96 h, Bladder, 4 days of treatment
Excerpt: as §1, §2, §3

BXF T 24 = assay: Monolayer propidium iodide assay, BXF T 24; conditions: Homo sapiens, 96 h; BXF T 24, Bladder; 4 days of treatment
Excerpt: as §1, §2, §3

CXF 269L = assay: Monolayer propidium iodide assay, CXF 269L; conditions: Homo sapiens, 96 h, Colon, 4 days of treatment
Excerpt: as §1, §2, §3

CXF HCT 116 = assay: Monolayer propidium iodide assay, CXF HCT 116; conditions: Homo sapiens, 96 h; CXF HCT 116, Colon; 4 days of treatment
Excerpt: as §1, §2, §3

CXF HT 29 = assay: Monolayer propidium iodide assay, CXF HT 29; conditions: Homo sapiens, 96 h; CXF HT 29, Colon; 4 days of treatment
Excerpt: as §1, §2, §3

CXF RKO = assay: Monolayer propidium iodide assay, CXF RKO; conditions: Homo sapiens, 96 h, Colon, 4 days of treatment
Excerpt: as §1, §2, §3

GXF 251 L = assay: Monolayer propidium iodide assay, GXF 251 L; conditions: Homo sapiens, 96 h, Gastric, 4 days of treatment
Excerpt: as §1, §2, §3

HNXF CAL 27 = assay: Monolayer propidium iodide assay, HNXF CAL 27; conditions: Homo sapiens, 96 h; HNXF CAL 27, Head and Neck; 4 days of treatment
Excerpt: as §1, §2, §3

LIXF 575L = assay: Monolayer propidium iodide assay, LIXF 575L; conditions: Homo sapiens, 96 h, Liver, 4 days of treatment
Excerpt: as §1, §2, §3

LXFA 289L = assay: Monolayer propidium iodide assay, LXFA 289L; conditions: Homo sapiens, 96 h, Lung, 4 days of treatment
Excerpt: as §1, §2, §3

LXFA 526L = assay: Monolayer propidium iodide assay, LXFA 526L; conditions: Homo sapiens, 96 h, Lung, 4 days of treatment
Excerpt: as §1, §2, §3

LXFA 629L = assay: Monolayer propidium iodide assay, LXFA 629L; conditions: Homo sapiens, 96 h, Lung, 4 days of treatment
Excerpt: as §1, §2, §3

LXFL 1121L = assay: Monolayer propidium iodide assay, LXFL 1121L; conditions: Homo sapiens, 96 h, Lung, 4 days of treatment
Excerpt: as §1, §2, §3

LXFL 529L = assay: Monolayer propidium iodide assay, LXFL 529L; conditions: Homo sapiens, 96 h, Lung, 4 days of treatment
Excerpt: as §1, §2, §3

LXFL H 460 = assay: Monolayer propidium iodide assay, LXFL H 460; conditions: Homo sapiens, NCI-H460, 96 h; LXFL H 460, Lung; 4 days of treatment
Excerpt: as §1, §2, §3

MAXF 401NL = assay: Monolayer propidium iodide assay, MAXF 401NL; conditions: Homo sapiens, 96 h, Mammary, 4 days of treatment
Excerpt: as §1, §2, §3

MAXF MCF 7 = assay: Monolayer propidium iodide assay, MAXF MCF 7; conditions: Homo sapiens, MCF7, 96 h; MAXF MCF 7, Mammary; 4 days of treatment
Excerpt: as §1, §2, §3

MAXF MDA 231 = assay: Monolayer propidium iodide assay, MAXF MDA 231; conditions: Homo sapiens, MDA-MB-231, 96 h; MAXF MDA 231, Mammary; 4 days of treatment
Excerpt: as §1, §2, §3

MEXF 1341L = assay: Monolayer propidium iodide assay, MEXF 1341L; conditions: Homo sapiens, 96 h, Melanoma, 4 days of treatment
Excerpt: as §1, §2, §3

MEXF 276L = assay: Monolayer propidium iodide assay, MEXF 276L; conditions: Homo sapiens, MEXF276L, 96 h, Melanoma, 4 days of treatment
Excerpt: as §1, §2, §3

MEXF 462NL = assay: Monolayer propidium iodide assay, MEXF 462NL; conditions: Homo sapiens, 96 h, Melanoma, 4 days of treatment
Excerpt: as §1, §2, §3

OVXF 899L = assay: Monolayer propidium iodide assay, OVXF 899L; conditions: Homo sapiens, 96 h, Ovarian, 4 days of treatment
Excerpt: as §1, §2, §3

OVXF OVCAR3 = assay: Monolayer propidium iodide assay, OVXF OVCAR3; conditions: Homo sapiens, OVCAR-3, 96 h; OVXF OVCAR3, Ovarian; 4 days of treatment
Excerpt: as §1, §2, §3

PAXF 1657L = assay: Monolayer propidium iodide assay, PAXF 1657L; conditions: Homo sapiens, 96 h, Pancreas, 4 days of treatment
Excerpt: as §1, §2, §3

PAXF 546L = assay: Monolayer propidium iodide assay, PAXF 546L; conditions: Homo sapiens, 96 h, Pancreas, 4 days of treatment
Excerpt: as §1, §2, §3

PAXF PANC 1 = assay: Monolayer propidium iodide assay, PAXF PANC 1; conditions: Homo sapiens, 96 h; PAXF PANC 1, Pancreas; 4 days of treatment
Excerpt: as §1, §2, §3

PRXF 22RV1 = assay: Monolayer propidium iodide assay, PRXF 22RV1; conditions: Homo sapiens, 96 h; PRXF 22RV1, Prostate; 4 days of treatment
Excerpt: as §1, §2, §3

- IC50 (BXF 1218L): 46 nM
- IC50 (BXF 1352L): 103 nM
- IC50 (BXF T 24): 50 nM
- IC50 (CXF 269L): 55 nM
- IC50 (CXF HCT 116): 48 nM
- IC50 (CXF HT 29): 137 nM
- IC50 (CXF RKO): 74 nM
- IC50 (GXF 251 L): 93 nM
- IC50 (HNXF CAL 27): 39 nM
- IC50 (LIXF 575L): 295 nM
- IC50 (LXFA 289L): 41 nM
- IC50 (LXFA 526L): 21 nM
- IC50 (LXFA 629L): 40 nM
- IC50 (LXFL 1121L): 47 nM
- IC50 (LXFL 529L): 50 nM
- IC50 (LXFL H 460): 146 nM
- IC50 (MAXF 401NL): 64 nM
- IC50 (MAXF MCF 7): 276 nM
- IC50 (MAXF MDA 231): 90 nM
- IC50 (MEXF 1341L): 102 nM
- IC50 (MEXF 276L): 90 nM
- IC50 (MEXF 462NL): 149 nM
- IC50 (OVXF 899L): 301 nM
- IC50 (OVXF OVCAR3): 195 nM
- IC50 (PAXF 1657L): 39 nM
- IC50 (PAXF 546L): 16 nM
- IC50 (PAXF PANC 1): 59 nM
- IC50 (PRXF 22RV1): 159 nM
Compound: CCCC1CCCCCC(O)CC(=O)NC2CSSCC(NC2=O)C(=O)O1 (stereo not shown) [compound of formula (1)]
